Test results from patent US20250082648A1, “COMPOSITIONS AND METHODS FOR ENHANCING KRAS INHIBITOR OR SHP2 INHIBITOR EFFICACY” (New York University, priority 2023, published 2025).

How the values were obtained:
[1] = tested on: NSCLC lines; test: Cell viability and proliferation assays (CCK8, trypan blue counts, Bliss analysis); format: cell-based, human; settings: for effect on MRTX-849 action: multiple NSCLC lines, including those not STK11 and/or KEAP1 mutant
Experimental: Cell viability and proliferation assays. […] Media (including inhibitors) were replaced every two days. Dose-response curves were generated using the […] Cell Counting Kit-8 (CCK8) assay (Enzo, ALX-850-039-KI02). Three hours after addition of CCK-8 reagent to cells, A450 was recorded using a FlexStation 3 multi-mode microplate reader according to the manufacturer's instructions. IC50s were calculated with GraphPad Prism. For all other proliferation assays, cells were harvested and stained with trypan blue (#T8154, Sigma-Aldrich), and viable (trypan blue-excluding) cells were quantified with a Countless II automated cell counter (Invitrogen).

[2] = tested on: YAP; test: YAP1 immunofluorescence (nuclear localization); format: cell-based, human
Experimental: Immunofluorescence. […]. Cells were then fixed in 4% paraformaldehyde for 10 minutes at room temperature, rinsed three times for 5 min. each in PBS, and permeabilized in 0.1% Triton X-100/5% FBS in PBS for a 1 hr at RT. […] Nuclei were stained with DAPI (BioLegend, Cat #: 422801) for 5 min, and slides were washed two more times in PBS before mounting with Fluorescence Mounting Medium (Dako, Cat #: S3023). Images were acquired with a Zeiss 880 Laser Scanning Confocal Microscope (Axio Observer) equipped with Zen 3.0 software (ZEN blue, Carl Zeiss Inc.) and were processed by Fiji software (NIH).

[3] = tested on: YAP1; test: YAP1 and DAPI immunofluorescence (YAP1 nuclear localization); format: cell-based
Source text: […]. […] Datasets (color-coded) used for pathway analysis are indicated at right with the sizes of the circles indicating statistical significance. […]. All immunofluorescence images are representative of three independent experiments. Scale bar=20 μm.
. FIG. 4B is a bubble plot showing pathways (p<0.05) enriched in SL genes (FDR<0.1). Datasets used for analysis are color-coded at right; the sizes of the circles indicate significance level. FIG. 4C is a Circos plot illustrating the overlap of SL genes (FDR<0.1) between lines. […]. FIGS. 10C-10D show quantification of YAP nuclear localization in presence of ROCK-I, in data from FIGS. 3G-3H. *p<0.05, 1-way ANOVA with Tukey's multiple comparisons test.

[4] = tested on: KCL lung tumors; test: KCL GEMM (KRAS G12C; Stk11 fl/fl, Ad-Cre) long-term treatment, MRI monitoring; settings: MRTX849 100 mg/kg/d plus SHP099 75 mg/kg/d; resistant tumors soon recurred
[5] = tested on: KCL cells; test: Cell viability and proliferation assays (CCK8, trypan blue counts); settings: combined with MRTX-849 at its IC50 dose
[6] = tested on: H2122 cells; settings: individual H2122 data (top); MRTX-849 vs vehicle 48 hr
Experimental: Bulk RNA-seq was performed on total RNA from cell lines or isolated tumor cells by the PCC Genome Technology Center Shared Resource (GTC). Libraries were prepared with the Illumina TruSeq Stranded Total RNA Sample Preparation Kit and sequenced on an Illumina NovaSeq 6000 platform utilizing 150-bp paired end reads. Sequencing data were de-multiplexed and transformed into FASTQ format by using Illumina bcl2fastq software. […] Briefly, sequencing results were transformed into FASTQ format by using Illumina bcl2fastq software. Reads were adapter- and quality-trimmed using Trimmomatic before alignment with the human or mouse genome using the splice-aware STAR aligner. Using featureCounts (49), counts for each gene were created based on the number of aligned reads overlapping its exons. These counts were standardized and subsequently evaluated for differential expression via the DESeq2 R package, using negative binomial generalized linear models. Lastly, the Enrichr tool was employed for pathway analysis of the bulk RNA-seq data.

[7] = preliminary results; cited from earlier work
[8] = tested on: KCL syngeneic tumor grafts; test: KCL syngeneic tumor grafts in C57BL/6J mice; format: in vivo, mouse; settings: MRTX-849 100 mg/kg/d, 30 days of treatment; VT104 10 mg/kg/d
Experimental: (§1) For syngeneic tumor experiments, KCL cells (10^6 in 200 ml PBS) were injected subcutaneously into the right flanks of male C57BL/6J mice (Jackson Laboratory). For xenografts, H2030 cells (5×10^6) were injected subcutaneously into the right flanks of Crl:NU-Foxn1nu/nu mice (Charles River, #088) with a 1:1 mixture of cell suspension in Matrigel (Corning, Cat #354234). […] Mice were weighed two times a week prior to dosing and throughout the study. Tumors were measured in 2 dimensions (length and width) twice a week and volumes (mm^3) were calculated as (length×width^2)/2).

[9] = tested on: H2030 cell-derived xenografts; test: H2030 cell-derived xenografts in nu/nu mice; format: in vivo, mouse; settings: MRTX-849 100 mg/kg/d, 30 days of treatment; VT104 10 mg/kg/d
Experimental: as §1

SMILES: C[C@@H](N)[C@H]1CC[C@H](C(=O)Nc2ccncc2)CC1 [Y27632]
- effect of addition on MRTX-849 efficacy ([1]; two cell lines tested): increased MRTX-849 efficacy
- YAP nuclear translocation induced by MRTX treatment ([2]; MRTX treatment for 24 hr plus ROCK inhibitor): inhibited
- YAP nuclear translocation induced by MRTX treatment ([2]; after 48h of treatment plus ROCK inhibitor): to an even greater extent

SMILES: C[C@@H](N)[C@H]1CC[C@H](C(=O)Nc2ccncc2)CC1 [Y-27632]
- MRTX-849-induced YAP1 nuclear localization ([3]; NSCLC lines, MRTX-849 at IC50 with or without Y-27632 (10 μM)): impairs MRTX-849-induced YAP1 nuclear localization

SMILES: CC1(N)CCN(c2cnc(-c3cccc(Cl)c3Cl)c(N)n2)CC1 [SHP099]
- response of tumors recurred after prolonged MRTX-849 treatment [4]: partial responses

SMILES: C[C@H](NC(=O)c1ccc2c(-c3ccc(C(F)(F)F)cc3)cccc2c1)c1ccccn1 [VT-104]
- effect on efficacy of combination MRTX849/TNO-155 ([1]; NSCLC lines, vs single agent or two drug-combinations, all at reduced doses): increased the efficacy
- effect on MRTX-849 action [1]: synergistically augmented
- IC50 in YAP1 over-expressing cells [5]: higher

SMILES: C=C(F)C(=O)N1CCN(c2nc(OC[C@@H]3CCCN3C)nc3c2CCN(c2cccc4cccc(Cl)c24)C3)C[C@@H]1CC#N [MRTX-849, adagrasib]
- nuclear translocation of YAP ([3]; H2030, H2122, H23, MiaPaca2 cells, MRTX-849 at IC50): induces RHO/ROCK-dependent nuclear translocation of YAP
- levels of nuclear YAP ([2]; H2030 cells): increased
- time at which nuclear YAP increase begins ([2]; H2030 cells): 4 h
- time at which nuclear YAP peaks ([2]; H2030 cells): 24 to 48 h
- PSAP RNA-seq, column median2 [6]: 0.7802

SMILES: C[C@@H](NC(=O)c1ccc2c(-c3ccc(C(F)(F)F)cc3)cccc2c1)c1cccc(N)n1 [VT106]
- effect on drug sensitivity ([1]; inactive analog control): no effect

SMILES: C[C@H](CO)NC(=O)c1ccc2c(Oc3ccc(C(F)(F)F)cc3)cccc2c1 [VT3989]
- safety in phase 1 clinical trial [7]: safe with manageable toxicity

SMILES: C[C@H](NC(=O)c1ccc2c(-c3ccc(C(F)(F)F)cc3)cccc2c1)c1ccccn1 [VT104]
- tumor response [8]: minimal
- tumor response [9]: minimal

SMILES: C=CC(=O)N1C[C@@H](n2cc(-c3cccnc3)nn2)[C@H](OCc2ccc(C(F)(F)F)cc2)C1 [MYF-03-69]
- effect on MRTX-849 action [1]: synergistically augmented

SMILES: C=C(F)C(=O)N1C[C@@H](Nc2ncccn2)[C@H](OCc2ccc(C(F)(F)F)cc2)C1 [MYF-03-176]
- IC50 in YAP1 over-expressing cells [5]: higher
